Experimental data published in US12097200B2, “Combination of BI853520 with chemotherapeutic drugs” (INXMED (NANJING) CO., LTD., priority 2020, dated 2024).
Values joined by “and” are separate entries in the source; they are usually repeats but may differ in a detail not shown here. Identical values can stand only once.

Columns and labels:
[1] = tested on: TOV-21G cells; experiment: Antitumor activity in mouse model of human ovarian cancer (TOV-21G xenograft); type: in vivo; conditions: combination of both
Source text: (§1) For tumor volume, absolute values were used.
(§2) Appropriate statistical methods were used for evaluation.
TOV-21G cells harboring KRAS and PIK3CA gene mutations were obtained from ATCC (CRL-11730).

[2] = tested on: SKOV-3 cells; experiment: Antitumor activity in mouse model of human ovarian cancer (SKOV-3 xenograft); type: in vivo; conditions: combination of both
Source text: as §1, §2
SKOV-3 cells harboring CDKN2, MLH1, PIK3CA and TP53 gene mutations were obtained from ATCC (HTB-77).
PLD (Doxil) was purchased from Johnson & Johnson and dissolved in sterile 5% glucose solution.
Treatment was initiated when the median tumor volume was between 70 and 110 mm^3.

[3] = tested on: A2780 cells; experiment: Antitumor activity in mouse model of human ovarian cancer (A2780 xenograft); type: in vivo
Source text: as §1, §2
A2780 cells harboring PTEN gene mutations were obtained from ECACC (93112519).

[4] = tested on: CTG-0252; experiment: Antitumor activity in ovarian cancer PDX model CTG-0252; type: in vivo, mouse; conditions: 7 days until end of test, BI 853520 50 mg/kg PO BID, PLD 3 mg/kg IV q7d, carboplatin 25 mg/kg IP + paclitaxel 20 mg/kg IV q7d
Description: (§3) Body weights (at start of dosing) were approximately 20 grams. […] Immunocompromised female mice were housed in HEPA ventilated cages (Innocage® IVC, Innovive USA) at 68-74° F. (20-23° C.) and 30-70% humidity under a 12-hour light/12-hour dark cycle. […] Animals with >10% body weight loss compared to day 0 received DietAel 76A (ClearH2O®, Portland, ME) for free. There were 3 mice in each group.
(§4) Mice were implanted with tumor cells from the ChampionsTumorGraft® ovarian model, which was established from patients previously treated with platinum-based therapy. After tumors reached 1000-1500 mm^3, they were collected, and tumor fragments SCs were implanted in the left flank of female pre-study mice. Each study animal was implanted with a specific passage batch. Tumor volume was measured twice a week with calipers to monitor tumor growth, and tumor volume (TV) was calculated using the formula (0.52×[length×width^2]). […] After initiation of dosing, animals were weighed daily using a digital scale and TV was measured twice weekly. […]
(§5) Inhibitory effect on tumor growth was determined by calculating TGI (100%×[1−(final MTV−initial MTV of the treatment group)/(final MTV−initial MTV of the control group)]). […]
(§6) CR: no TV could be detected (<4×4 mm^2), in 2 consecutive measurements […]

[5] = tested on: CTG-0257; experiment: Antitumor activity in ovarian cancer PDX model CTG-0257; type: in vivo, mouse; conditions: 30 days until end of test, doses as Table 3
Description: as §3, §4, §5, §6

[6] = tested on: CTG-0868; experiment: Antitumor activity in ovarian cancer PDX model CTG-0868; type: in vivo, mouse; conditions: 25 days until end of test, doses as Table 3
Description: as §3, §4, §5, §6

[7] = tested on: CTG-0956; experiment: Antitumor activity in ovarian cancer PDX model CTG-0956; type: in vivo, mouse; conditions: CTG-0956 (carboplatin and paclitaxel-resistant); 67 days until end of test; doses as Table 3
Description: as §3, §4, §5, §6

[8] = tested on: CTG-0992; experiment: Antitumor activity in ovarian cancer PDX model CTG-0992; type: in vivo, mouse; conditions: CTG-0992 (carboplatin and paclitaxel-resistant); 60 days until end of test; doses as Table 3
Description: as §3, §4, §5, §6

[9] = tested on: CTG-1180; experiment: Antitumor activity in ovarian cancer PDX model CTG-1180; type: in vivo, mouse; conditions: CTG-1180 (carboplatin and paclitaxel-resistant); 42 days until end of test; doses as Table 3
Description: as §3, §4, §5, §6

[10] = tested on: CTG-1301; experiment: Antitumor activity in ovarian cancer PDX model CTG-1301; type: in vivo, mouse; conditions: CTG-1301 (carboplatin and paclitaxel-resistant); 38 days until end of test; doses as Table 3
Description: as §3, §4, §5, §6

[11] = tested on: CTG-1427; experiment: Antitumor activity in ovarian cancer PDX model CTG-1427; type: in vivo, mouse; conditions: 42 days until end of test, doses as Table 3
Description: as §3, §4, §5, §6

[12] = tested on: CTG-1433; experiment: Antitumor activity in ovarian cancer PDX model CTG-1433; type: in vivo, mouse; conditions: CTG-1433 (carboplatin and paclitaxel-resistant); 49 days until end of test; doses as Table 3
Description: as §3, §4, §5, §6

[13] = tested on: CTG-1498; experiment: Antitumor activity in ovarian cancer PDX model CTG-1498; type: in vivo, mouse; conditions: CTG-1498 (carboplatin and paclitaxel-resistant); 98 days until end of test; doses as Table 3
Description: as §3, §4, §5, §6

[14] = tested on: CTG-1624; experiment: Antitumor activity in ovarian cancer PDX model CTG-1624; type: in vivo, mouse; conditions: 38 days until end of test, doses as Table 3
Description: as §3, §4, §5, §6

[15] = tested on: CTG-1627; experiment: Antitumor activity in ovarian cancer PDX model CTG-1627; type: in vivo, mouse; conditions: 28 days until end of test, doses as Table 3
Description: as §3, §4, §5, §6

[16] = tested on: CTG-1677; experiment: Antitumor activity in ovarian cancer PDX model CTG-1677; type: in vivo, mouse; conditions: 32 days until end of test, doses as Table 3
Description: as §3, §4, §5, §6

[17] = tested on: KYSE-270 cells; experiment: Antitumor activity in mouse xenograft model of human esophageal cancer (KYSE-270); type: in vivo; conditions: KYSE-270 xenograft, combination of both
Source text: as §1, §2
Mice were approximately 8-10 weeks old.
KYSE-270 was a cell line for esophageal cancer (Public Health England, Cat. No. 94072021).

[18] = tested on: HS 746T cells; experiment: Antitumor activity in mouse xenograft model of human gastric cancer (HS 746T); type: in vivo; conditions: HS 746T xenograft, combination of both
Source text: as §1, §2
HS 746T: Approximately 6 week old mice.

[19] = tested on: GXA 3039 gastric cancer PDX model
Description: Mice were housed in individual ventilated cages ([sequence] Sealsafe™-IVC-System, [sequence], Hohenpeissenberg, Germany), and type II or III cages were selected according to the number of experimental animals. The cages were under the conditions: 14L:10D light-dark cycle, air exchange (AC) rate of 60-65 AC/hr in the cage, 25±1° C. and 40-70% humidity. […] Water and diet were changed twice a week, and all materials were autoclaved before use.
Tumor fragments were implanted subcutaneously into the flank of female pre-study mice. […] Animals that were not randomized were euthanized. The date of randomization was designated as day 0 of the test, and dosing began on day 1. […] If less than 70% of the original number of mice survived (i.e. less than 6 out of 8), the entire group was terminated. […] Tolerability was assessed using the group with the largest median body weight loss (BWL) among groups.
Inhibition of tumor growth was determined by calculating TGI.
Additional endpoints used to assess efficacy included: time to tumor volume doubling/quadrupling and tumor growth delay/time to tumor progression/tumor repopulation.
Time to tumor volume doubling/quadrupling: The time to tumor volume doubling/quadrupling (Td/Tq) for the test and control groups was defined as the time interval (in days) required for each group to reach 200%/400% of the median RTV. The relative volume of a single tumor on day X (RTVx [%]) was obtained by dividing the absolute volume of the tumor on day X (Tx) by the absolute volume of the tumor on day 0 (T0) and then multiplying it by 100, as follows:
Tumor growth delay/time to tumor progression/tumor repopulation: To assess the difference in time to tumor progression/tumor repopulation after tumor regression during the no-dose observation period (tumor growth delay, TGD), Kaplan-Meier survival analysis was used. A relative tumor volume of 400% was defined as the endpoint.
The control group for oral administration was 0.5% Natrosol. The control group for intravenous administration was 0.9% saline. Each dose was 10 ml/kg.
Data were used for statistical analysis at the end of the study. The one-tailed nonparametric Mann-Whitney-Wilcoxon U test was used with the significance level a set at 0.05. The p-values obtained from the U-test were adjusted using the Bonferroni-Holm correction.
To assess the statistical significance of differences in time to tumor progression/tumor growth delay (TGD) using 400% of RTV as the trial endpoint, the Kaplan-Meier survival mode statistic was used in conjunction with the log-rank Mantel-Cox test for pairwise comparisons.
Additionally, to assess tolerance to treatment, a two-tailed nonparametric Mann-Whitney-Wilcoxon U test was performed using body weights determined at the end of the dosing period (i.e., on the day TGI values were calculated).
By convention, p-values≤0.05 represented significant tumor inhibition or weight loss.

[20] = tested on: NCI-H520 cells; conditions: NCI-H520 xenograft, day 22, combination of both
Description: Mice were approximately 6 weeks old. There were 5 mice in each group.
The cell concentration of the culture was maintained between 8×10^6 to 12×10^7 cells/tissue culture flask.
Cisplatin was dissolved in 0.9% saline.
Statistical evaluation was performed using the Student's t-test function in Microsoft Excel, utilizing a two-tailed distribution and a two-sample equal variance type.

[21] = tested on: CTG-1166; experiment: Antitumor activity in ChampionsTumorGraft PDX ovarian cancer model CTG-1166
Description: as §3
Mice were implanted with tumor cells from the ChampionsTumorGraft® ovarian model, which was established from patients previously treated with platinum-based therapy. After tumors reached 1000-1500 mm^3, they were collected, and tumor fragments SCs were implanted in the left flank of female pre-study mice. Each study animal was implanted with a specific passage batch. Tumor volume was measured twice a week with calipers to monitor tumor growth, and tumor volume (TV) was calculated using the formula (0.52×[length×width^2]). When TV reached approximately 250-350 mm^3 (average 300 mm^3), animals were matched to tumor size and assigned to the control or treatment groups (study mice) and dosing started on day 0. After initiation of dosing, animals were weighed daily using a digital scale and TV was measured twice weekly. The study was terminated when the mean tumor volume in the control group reached approximately 1500 mm^3 or until day 60. In some models, the study was extended beyond Day 60 and dosing was also extended to the end of the study. Individual animals could be removed from the study when tumor volume reaches approximately 1500 mm^3.
Control 1: 0.5% Natrosol; control 2: 5% sterile glucose.
The control group for oral administration was 0.5% Natrosol. The control group for intravenous administration was 5% sterile glucose.
Carboplatin was a pre-formulated 10 mg/mL stock solution. PLD was a pre-formulated 2 mg/mL stock solution. Paclitaxel was a pre-formulated 6 mg/mL stock solution. These standard chemotherapeutic drugs were provided by Champions.
Data for each group, including body weight for each animal and mean body weight, were recorded, and the percentage change in mean body weight (% vD0) for each group relative to Day 0 was recorded, and the % vD0 was plotted at the completion of the study.
Animal deaths were recorded daily and determined as drug-related (D), technical (T), tumor-related (B), or unknown (U) based on weight loss and by visual inspection. […] The maximum mean % vD0 (body weight nadir) for each treatment group was reported at the end of the study.
Inhibitory effect on tumor growth was determined by calculating TGI (100%×[1−(final MTV−initial MTV of the treatment group)/(final MTV−initial MTV of the control group)]). Treatment was started on day 0. Tumor volumes in the treatment group were compared with those in the control group on the day the study was completed.
Other endpoints used to assess efficacy included number of CR, PR and TFS. PR and TFS were considered to exclude CR.
PR: TV≤30% of TV on day 0, in 2 consecutive measurements
CR: no TV could be detected (<4×4 mm^2), in 2 consecutive measurements
TFS: CR that persisted until the study was completed
Data were used for statistical analysis at the end of the study. Statistical comparisons of tumor volumes were performed using one-way analysis of variance followed by Newman-Keuls multiple comparison test to compare differences between all groups. Selected endpoints included as many groups as possible and as many animals per group as possible.
Tumor volumes from animals removed early due to tumor volume ≥1500 mm^3 were carried forward for analysis, but not more than 4 consecutive measurement time points.

[22] = day 22, BI 853520 12.5 mg/kg qd by gavage, PLD 1 mg/kg q7d i.v.
[23] = BI 853520 50 mg/kg qd, paclitaxel 10 mg/kg q7d
[24] = BI 853520 50 mg/kg qd, docetaxel 10 mg/kg q7d
[25] = BI 853520 50 mg/kg qd, cisplatin 5 mg/kg IP q7d
[26] = CTG-1166 PDX, Day 0-56, n=3 per group, doses as Table 4
[27] = CTG-1166 PDX, day 17, BI 853520 50 mg/kg PO BID, PLD 3 mg/kg IV q7d, carboplatin 25 mg/kg IP q7dx3 + paclitaxel 20 mg/kg IV q7dx3

COc1cc(C(=O)NC2CCN(C)CC2)c(F)cc1Nc1ncc(C(F)(F)F)c(Oc2cccc3c2C(=O)N(C)C3)n1 [BI 853520, 2-fluoro-5-methoxy-4-[(4-(2-methyl-3-oxo-2,3-dihydro-1H-isoindole-4-oxy)-5-trifluoromethyl-pyrimidin-2-yl)amino]-N-(1-methyl-piperidin-4-yl)benzamide]
Antitumor effect (in words) ([1]; BI 853520 12.5 mg/kg qd, PLD 1 mg/kg q7d): good efficacy at low doses | TGI ([1]; day 1 to day 22, median tumor volumes, BI 853520 12.5 mg/kg qd, PLD 1 mg/kg q7d): 67% | Median tumor volume [1, 22]: 271 mm^3 | Tumor regression (animals with regression/animals in group) [1, 22]: no tumor regression and 0/7 | TGI ([2]; day 1 to day 22, median tumor volumes, BI 853520 50 mg/kg qd, PLD 5 mg/kg q7d): 57% | Median tumor volume ([2]; day 22, BI 853520 50 mg/kg qd by gavage, PLD 5 mg/kg q7d i.v.): 306 mm^3 | Tumor regression (animals with regression/animals in group) ([2]; day 22, BI 853520 50 mg/kg qd, PLD 5 mg/kg q7d): no tumor regression and 0/7 | Antitumor effect (in words) ([3]; BI 853520 25 and 50 mg/kg qd, PLD 5 mg/kg q7d, combination 50 + 5 mg/kg): efficacy of BI 853520 was observed at medium and high dose levels | TGI ([3]; day 1 to day 15, BI 853520 12.5 mg/kg qd): 19% | TGI ([3]; day 1 to day 15, BI 853520 25 mg/kg qd): 83% | TGI ([3]; day 1 to day 15, BI 853520 50 mg/kg qd, PLD 5 mg/kg q7d, combination of both): 85% | Median tumor volume ([3]; day 15, BI 853520 12.5 mg/kg qd by gavage): 968 mm^3 | Tumor regression (animals with regression/animals in group) ([3]; day 15, BI 853520 12.5 mg/kg qd, 12.5 mg/kg): no tumor regression and 0/10 | Median tumor volume ([3]; day 15, BI 853520 25 mg/kg qd by gavage): 284 mm^3 | Tumor regression (animals with regression/animals in group) ([3]; day 15, BI 853520 25 mg/kg qd, 25 mg/kg): no tumor regression and 0/10 | Median tumor volume ([3]; day 15, BI 853520 50 mg/kg qd by gavage, PLD 5 mg/kg q7d i.v., combination of both): 262 mm^3 | Tumor regression (animals with regression/animals in group) ([3]; day 15, BI 853520 50 mg/kg qd, PLD 5 mg/kg q7d, combination of both): no tumor regression and 0/10 | TGI (%) [4]: 54% | TGI (%) [5]: 67% | TGI (%) [6]: 54% | TGI (%) [7]: 77% | TGI (%) [8]: 49% | TGI (%) [9]: 33% | TGI (%) [10]: 43% | TGI (%) [11]: 59% | TGI (%) [12]: 61% | TGI (%) [13]: 128% | TGI (%) [14]: 22% | TGI (%) [15]: 50% | TGI (%) [16]: 51% | Median tumor volume ([17]; day 13, BI 853520 50 mg/kg qd by gavage, paclitaxel 10 mg/kg q7d i.v.): 126 mm^3 | TGI ([17]; day 13, BI 853520 50 mg/kg qd, paclitaxel 10 mg/kg q7d): 106% | Antitumor effect (in words) [17, 23]: had inhibitory effect on tumor growth | Change in median body weight [17, 23]: 2.8% | Tumor regression (animals with regression/animals in group) [17, 23]: 6 of 7 and 6/7 | Median tumor volume ([18]; day 24 (withdrawal on day 28), BI 853520 50 mg/kg qd by gavage, docetaxel 10 mg/kg q7d i.v.): 229 mm^3 | Antitumor effect (in words) [18, 24]: had inhibitory effect | Change in median body weight [18, 24]: 7.3% | TGI [18, 24]: 93% | Tumor regression (animals with regression/animals in group) [18, 24]: 1 of 8 and 1/8 | Antitumor effect (in words) ([19]; GXA 3039 PDX, doses as Table 8): did not show any antitumor efficacy | Td (time to tumor volume doubling) ([19]; GXA 3039 PDX, time to 200% of median RTV, doses as Table 8): 8.1 days | Tq (time to tumor volume quadrupling) ([19]; GXA 3039 PDX, time to 400% of median RTV, nr = not reached until end of test, doses as Table 8): 41.2 days | TGI [%] (d) ([19]; GXA 3039 gastric cancer PDX, day 36, BI 853520 50 mg/kg/d PO days 1-35, docetaxel 10 mg/kg IV days 1, 8, 15, 22, 29, combination of both): 0% and 0(36) % | Survival rate ([19]; female, BomTac:NMRI-Foxn1nu, mouse, in vivo): 4/8 | Median tumor volume ([20]; BI 853520 50 mg/kg qd by gavage, cisplatin 5 mg/kg IP once a week): 352 mm^3 | Median TGI [20, 25]: 54% | Tumor regression (animals with regression/animals in group) [20, 25]: 0/7 | #CR (complete responses) [21, 26]: 0/0/0 | #PR (partial responses) [21, 26]: 0/0/0 | #TFS (tumor-free survivors) [21, 26]: 0/0/0 | Body weight (day 17) % vD0 ([21]; CTG-1166 PDX, day 17, change in mean body weight relative to Day 0): 4.0% | % TGI [21, 27]: 89% | Tumor volume (day 17) Mean ± SEM [21, 27]: 366 ± 78 mm^3 | Dead Total ([21]; CTG-1166 PDX, animal deaths, n=3 per group): 0 | Body weight nadir Day ([21]; CTG-1166 PDX, day of body weight nadir): 13 | Antitumor activity (in words) ([21]; CTG-1166 PDX, doses as Table 4): significant inhibitory effect on tumor growth | Body weight (day 17) Mean ± SEM ([21]; mouse, in vivo): 26.7 ± 0.4 g | Body weight nadir % vD0(max) ([21]; mouse, in vivo, po, 50 mg/kg): −0.7%
